Results taken from patent publication US12030877B2, “Prostaglandin E synthase inhibitors and methods for utilizing the same” (University of Kentucky Research Foundation, priority 2016, dated 2024).

Assays:
mPGES-1 Mouse enzyme = biological target: T1, mPGES-1 Mouse enzyme (Mus musculus, UniProt Q9JM51); assay: mPGES-1 enzyme activity assay (PGE2 enzyme immunoassay), mouse enzyme; assay type: biochemical; conditions: for inhibition at 10 µM: compound at a concentration of 10 μM, read-out: % inhibition of the compound against mPGES-1, Mouse enzyme; for IC50: recombinant microsomal enzyme, means ± SD, triplicate, read-out: IC50 against mPGES-1, Mouse enzyme
T1 construct: made in house; host or cells: FreeStyle 293-F cells, crude microsomal preparation
T1 sequence (Q9JM51 1-153): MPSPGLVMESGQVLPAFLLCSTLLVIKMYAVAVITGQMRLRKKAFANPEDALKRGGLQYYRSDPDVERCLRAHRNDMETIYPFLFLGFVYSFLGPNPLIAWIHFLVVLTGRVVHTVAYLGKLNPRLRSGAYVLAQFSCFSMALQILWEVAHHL
Procedure: (§1) Studies were conducted to characterize the inhibitory activity against recombinant mPGES-1 of the compounds synthesized in accordance with Examples 1-4, and disclosed herein.
(§2) Briefly, FreeStyle 293-F cells were cultured following manufacturer's manual in FreeStyle 293 expression medium on orbit rotate shaker in 8% CO2 incubator at 37° C. Cells were transfected with 1.5 μg/mL of mPGES-1/pcDNA3 construct using FreeStyle Max reagent at a cell density of 1×10^6 for 2 days. Transfected cells were collected, washed, and sonicated in TSES buffer (15 mM Tris-HCl, pH 8.0 plus 0.25 M sucrose, 0.1 mM EDTA and 1 mM DTT) on ice. The broken cells were first centrifuged at 12,500×g for 10 min. The supernatant was further centrifuged at 105,000×g for 1 hr at 4° C. The pellet was washed and homogenized in PBS buffer. The crude microsomal mPGES-1 preparation was aliquoted and stored at −80° C. The crude protein concentration was 8 mg/mL.
(§3) The enzyme activity assays were performed on ice in 1.5 ml microfuge tubes by using the expressed mPGES-1. The reaction mixture contained: 0.2 M Na2HPO4/NaH2PO4, pH 7.2, 10 μL; 0.1 M GSH, 2.5 μL; diluted microsomal enzyme (80 μg/mL), 1 μL; PGH2 (0.31 mM in DMF), 5 μL; 1 μL inhibitor; and H2O in a final reaction volume of 100 μL. PGH2 was stored in dry ice and used to initiate the reaction.
(§4) Compounds were incubated with the enzyme for 15 min at room temperature before the addition of cold PGH2 (1 μM final) to initiate the enzyme reaction. After 30 s, 10 μL of SnCl2 (40 mg/mL) in ethanol was added to stop the reaction. The nonenzymatic conversion of PGH2 to PGE2 was performed in the same buffer devoid of enzyme. The reaction mixture was placed on ice until PGE2 production was determined by the PGE2 enzyme immunoassay as described earlier. IC50 values of the inhibitors were calculated by using the GraphPad Prism 4.0 program. The results are set forth in the tables provided in Examples 7-10.

mPGES-1 = biological target: T2, mPGES-1 (Homo sapiens, UniProt O14684); assay: mPGES-1 enzyme activity assay (PGE2 enzyme immunoassay), human enzyme; assay type: biochemical; design: made in house; host or cells: FreeStyle 293-F cells, crude microsomal preparation; conditions: for IC50: recombinant microsomal enzyme, means ± SD, triplicate, read-out: IC50 against mPGES-1, Human enzyme
T2 sequence (O14684 1-152): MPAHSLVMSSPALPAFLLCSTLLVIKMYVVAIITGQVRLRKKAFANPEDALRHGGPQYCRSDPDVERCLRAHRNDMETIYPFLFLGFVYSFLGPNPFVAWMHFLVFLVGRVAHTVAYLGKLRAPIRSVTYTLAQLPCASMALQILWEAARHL
Procedure: as §1, §2, §3, §4

SMILES: CCCCCN1C(=O)/C(=C2\SC(=O)N(CC(=O)O)C2=O)c2ccccc21 [II-12]
- inhibition at 10 µM (mPGES-1 Mouse enzyme): 35%
- IC50 (mPGES-1): 1660 ± 168 nM

SMILES: CCCCCCN1C(=O)/C(=C2\SC(=O)N(CC(=O)O)C2=O)c2ccccc21 [II-13]
- inhibition at 10 µM (mPGES-1 Mouse enzyme): 57%
- IC50 (mPGES-1): 1070 ± 116 nM

SMILES: CCCCCCCN1C(=O)/C(=C2\SC(=O)N(CC(=O)O)C2=O)c2ccccc21 [II-14]
- inhibition at 10 µM (mPGES-1 Mouse enzyme): 67%
- IC50 (mPGES-1): 324 ± 44 nM

SMILES: CCCCCCCCN1C(=O)/C(=C2\SC(=O)N(CC(=O)O)C2=O)c2ccccc21 [II-15]
- IC50 (mPGES-1 Mouse enzyme): 2680 ± 302 nM
- IC50 (mPGES-1): 314 ± 44 nM

SMILES: CCCCCCCCCN1C(=O)/C(=C2\SC(=O)N(CC(=O)O)C2=O)c2ccccc21 [II-16]
- IC50 (mPGES-1 Mouse enzyme): 1400 ± 217 nM
- IC50 (mPGES-1): 199 ± 32 nM

SMILES: CCCCCCCCCCN1C(=O)/C(=C2\SC(=O)N(CC(=O)O)C2=O)c2ccccc21 [II-17]
- IC50 (mPGES-1 Mouse enzyme): 935 ± 135 nM
- IC50 (mPGES-1): 217 ± 30 nM

SMILES: O=C(O)CN1C(=O)S/C(=C2\C(=O)N(CC3CCCCC3)c3ccc(-c4ccccc4)cc32)C1=O [II-18]
- IC50 (mPGES-1 Mouse enzyme): 394 ± 58 nM
- IC50 (mPGES-1): 221 ± 47 nM

SMILES: O=C(O)CN1C(=O)S/C(=C2\C(=O)N(CC3CCCCC3)c3ccc(-c4ccc(-c5ccccc5)cc4)cc32)C1=O [II-19]
- IC50 (mPGES-1 Mouse enzyme): 1020 ± 162 nM
- IC50 (mPGES-1): 154 ± 20 nM

SMILES: O=C(O)CN1C(=O)S/C(=C2\C(=O)N(CC3CCCCC3)c3ccc(-c4ccc5ccccc5c4)cc32)C1=O [II-20]
- IC50 (mPGES-1 Mouse enzyme): 244 ± 31 nM
- IC50 (mPGES-1): 531 ± 90 nM

SMILES: O=C(O)CN1C(=O)S/C(=C2\C(=O)N(CC3CCCCC3)c3ccc(-c4ccc(C#Cc5ccccc5)cc4)cc32)C1=O [II-21]
- IC50 (mPGES-1 Mouse enzyme): 1960 ± 348 nM
- IC50 (mPGES-1): 91 ± 23 nM

SMILES: O=C(O)CN1C(=O)S/C(=C2\C(=O)N(CC3CCCCC3)c3ccc(-c4ccc(C#CC5CCCCC5)cc4)cc32)C1=O [II-22]
- IC50 (mPGES-1 Mouse enzyme): 685 ± 406 nM
- IC50 (mPGES-1): 25 ± 5 nM

SMILES: O=C(O)CN1C(=O)S/C(=C2\C(=O)Nc3ccc(-c4ccccc4)cc32)C1=O [II-23]
- inhibition at 10 µM (mPGES-1 Mouse enzyme): 63%
- IC50 (mPGES-1): 8020 ± 1050 nM

SMILES: O=C(O)CN1C(=O)S/C(=C2\C(=O)N(CCC3CCCCC3)c3ccc(-c4ccccc4)cc32)C1=O [II-24]
- IC50 (mPGES-1 Mouse enzyme): 777 ± 364 nM
- IC50 (mPGES-1): 32 ± 6 nM

SMILES: O=C(O)CN1C(=O)S/C(=C2\C(=O)N(CCCC3CCCCC3)c3ccc(-c4ccccc4)cc32)C1=O [II-25]
- IC50 (mPGES-1 Mouse enzyme): 1220 ± 430 nM
- IC50 (mPGES-1): 16 ± 4 nM

SMILES: O=C(O)CN1C(=O)S/C(=C2\C(=O)N(CCCCC3CCCCC3)c3ccc(-c4ccccc4)cc32)C1=O [II-26]
- IC50 (mPGES-1 Mouse enzyme): 1130 ± 244 nM
- IC50 (mPGES-1): 13 ± 3 nM

SMILES: O=C(O)CN1C(=O)S/C(=C2\C(=O)N(Cc3ccc(Cl)cc3)c3ccc(-c4ccccc4)cc32)C1=O [II-27]
- IC50 (mPGES-1 Mouse enzyme): 13200 ± 5080 nM
- IC50 (mPGES-1): 54 ± 14 nM

SMILES: O=C1NC(=O)/C(=C2/C(=O)N(CCCC3CCCCC3)c3ccccc32)S1 [II-28]
- inhibition at 10 µM (mPGES-1 Mouse enzyme): 0%
- IC50 (mPGES-1): 1390 ± 273 nM

SMILES: O=C1NC(=S)S/C1=C1\C(=O)N(CCCC2CCCCC2)c2ccccc21 [II-29]
- inhibition at 10 µM (mPGES-1 Mouse enzyme): 29%
- IC50 (mPGES-1): 1260 ± 335 nM

SMILES: O=C(O)CN1C(=O)/C(=C2\SC(=S)NC2=O)c2ccccc21 [II-30]
- inhibition at 10 µM (mPGES-1 Mouse enzyme): 6.1%
- IC50 (mPGES-1): 211 ± 67 nM

SMILES: O=C(O)CN1C(=O)/C(=C2\SC(=O)N(CCCCc3ccccc3)C2=O)c2ccccc21 [II-31]
- inhibition at 10 µM (mPGES-1 Mouse enzyme): 64%
- IC50 (mPGES-1): 962 ± 159 nM

SMILES: O=C(O)CN1C(=O)/C(=C2\SC(=O)N(CCCCC3CCCCC3)C2=O)c2ccccc21 [II-32]
- inhibition at 10 µM (mPGES-1 Mouse enzyme): 44%
- IC50 (mPGES-1): 2560 ± 442 nM

SMILES: O=C(CCCN1C(=O)C=CC1=O)Nc1ccc2c(c1)Cc1ccccc1-2 [III-01]
- inhibition at 10 µM (mPGES-1 Mouse enzyme): 48%
- IC50 (mPGES-1): 1920 ± 300 nM

SMILES: O=C(CCCCCN1C(=O)C=CC1=O)Nc1ccc2c(c1)Cc1ccccc1-2 [III-02]
- IC50 (mPGES-1 Mouse enzyme): 2880 ± 496 nM
- IC50 (mPGES-1): 613 ± 103 nM

SMILES: O=C(CCCN1C(=O)C=CC1=O)Nc1ccc(OCCCC2CCCCC2)cc1 [III-03]
- inhibition at 10 µM (mPGES-1 Mouse enzyme): 55%
- inhibition at 10 µM (mPGES-1; compound at a concentration of 10 μM, read-out: % inhibition of the compound against mPGES-1, Human enzyme): 63%
